Experimental data taken from US10059655B2, “Lipids and lipid compositions for the delivery of active agents” (priority 2013, dated 2018).

Tests used:
[1] = Measurement of siRNA encapsulation (SYBR Gold fluorescence); format: physicochemical; conditions: FVII siRNA in LNP
Experimental: The lipid nanoparticles (LNPs) were formed by mixing equal volumes of lipids dissolved in alcohol with siRNA dissolved in a citrate buffer by an impinging jet process. The lipid solution contains a cationic lipid compound of the invention, a helper lipid (cholesterol), an optional neutral lipid (DSPC) and a stealth lipid (S010, S024, S027, or S031) at a concentration of 8-16 mg/mL with a target of 12 mg/mL in an alcohol. The siRNA to total lipid ratio is approximately 0.05 (wt/wt). Where a LNP formulation contains four lipid components, the molar ratios of the lipids ranges from 20 to 70 mole percent for the cationic lipid with a target of 40-60, the mole percent of helper lipid ranges from 20 to 70 with a target of 30 to 50, the mole percent of neutral lipid ranges from 0-30, the mole percent of PEG lipid has a range from 1 to 6 with a target of 2 to 5. The concentration of siRNA solution ranges from 0.7 to 1.0 mg/mL with a target of 0.8 to 0.9 mg/mL in a sodium citrate: sodium chloride buffer pH 4-6, with a target of 4.5-5.5. The LNPs are formed by mixing equal volumes of lipid solution in ethanol with siRNA dissolved in a citrate buffer by an impinging jet process through a mixing device with ID ranging from 0.25 to 2.0 mm at a flow rate from 10 to 640 mL/min. The mixed LNP solution is held at room temperature for 0-24 hrs prior to a dilution step. The solution is then concentrated and diafiltered with suitable buffer by ultrafiltration process using membranes with a MW cutoff from 30 to 500 KD. The final product is sterile filtered and stored at 4° C.
SYBR Gold flourescence reagent is used for the determination of siRNA encapsulation in the DLP's. DLP's with and without triton x-100 are used to determine the free siRNA and total siRNA amounts. DLP's samples with and without triton X-100 were excited at 485 nm and flourescence emission is measured at 530 nm. Encapsulation efficiency is calculated based on the following formula: Encapsulation efficiency: [(free siRNA concentration−total siRNA concentration)/(total siRNA concentration)]×100% Encapsulation Data

[2] = Measurement of mRNA encapsulation in lipid nanoparticles (Quant-iT Ribogreen); format: physicochemical; conditions: Leptin mRNA in LNP
In short: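 LNPs were formed by T-junction mixing of ethanolic lipids (cationic lipid:DSPC:cholesterol:PEG lipid 40:10:38:2) with mRNA in citrate pH 5.8–6.0 at N:P 4:1, then dialysed against PBS overnight at 4 °C. RiboGreen fluorescence (ex 480/em 520 nm) was read on samples diluted 400–2,000-fold in TE with or without 0.75% Triton X-100 and quantified against standard curves. Encapsulation % = (Triton − buffer concentration)/Triton concentration.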

Row | Structure (SMILES) | % encapsulation siRNA FVII [1] [%] | % encapsulation mRNA Leptin [2] [%]
1 | CCCCC/C=C\C/C=C\CCCCCCCC(=O)OCC(COC(=O)CC(CCCCCCCC)CCCCCCCC)COC(=O)OCCCN(CC)CC (centres unmarked) [Example 22, (9Z,12Z)-3-(((3-(diethylamino)propoxy)carbonyl)oxy)-2-(((3-octylundecanoyl)oxy)methyl)propyl octadeca-9,12-dienoate] | 86.1 | –
2 | CCCCC/C=C\C/C=C\CCCCCCCC(=O)OCC(COC(=O)CCCCCCCC(CCCCC)CCCCC)COC(=O)OCCCN(CC)CC (centres unmarked) [Example 24, (9Z,12Z)-3-(((3-(diethylamino)propoxy)carbonyl)oxy)-2-(((9-pentyltetradecanoyl)oxy)methyl)propyl octadeca-9,12-dienoate] | 89.1 | 86.6
3 | CCCCC/C=C\C/C=C\CCCCCCCC(=O)OCC(COC(=O)CCCC(CCCCCCC)CCCCCCC)COC(=O)OCCCN(CC)CC (centres unmarked) [Example 25, (9Z,12Z)-3-(((3-(diethylamino)propoxy)carbonyl)oxy)-2-(((5-heptyldodecanoyl)oxy)methyl)propyl octadeca-9,12-dienoate] | 88.7 | 95.3
4 | CCCCC/C=C\C/C=C\CCCCCCCC(=O)OCC(COC(=O)CCCCCCC/C=C\C/C=C\CCCCC)COC(=O)C1CCN(CC2CC2)CC1 [Example 9, (9Z,9′Z,12Z,12′Z)-2-(((1-(cyclopropylmethyl)piperidine-4-carbonyl)oxy)methyl)propane-1,3-diyl bis(octadeca-9,12-dienoate)] | 86.7 | –
5 | CCCCC/C=C\C/C=C\CCCCCCCC(=O)OCC(COC(=O)OCCN(C)C)COC(=O)C(OCCCCCCC)OCCCCCCC (centres unmarked) [Example 26, (9Z,12Z)-3-(2,2-bis(heptyloxy)acetoxy)-2-((((2-(dimethylamino)ethoxy)carbonyl)oxy)methyl)propyl octadeca-9,12-dienoate] | 80.0 | 96.9
